# Experimental data published in paper PMC4329189, “A SelB/EF-Tu/aIF2γ-like protein from Methanosarcina mazei in the GTP-bound form binds cysteinyl-tRNA^Cys” (Journal of Structural and Functional Genomics, 2015).
# Target: T1, MM1309 (Methanosarcina mazei, UniProt Q8PXB3)
# T1 construct: gene MM_1309; full length, 350 residues, N-terminal His tag from pET28c kept (tag residues visible in crystal), expressed in E. coli; SeMet-substituted protein for the GMPPNP and GDP crystals
# T1 sequence (Q8PXB3 1-350): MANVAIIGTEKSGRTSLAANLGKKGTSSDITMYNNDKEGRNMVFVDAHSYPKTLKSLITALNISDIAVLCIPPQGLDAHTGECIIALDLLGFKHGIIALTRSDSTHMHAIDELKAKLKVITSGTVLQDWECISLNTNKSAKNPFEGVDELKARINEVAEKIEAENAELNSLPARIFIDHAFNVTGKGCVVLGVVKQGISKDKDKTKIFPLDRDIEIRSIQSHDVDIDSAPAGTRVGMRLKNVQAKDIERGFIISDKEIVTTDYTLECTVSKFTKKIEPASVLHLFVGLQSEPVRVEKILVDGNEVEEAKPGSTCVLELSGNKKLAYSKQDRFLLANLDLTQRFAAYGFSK
# Assay: isothermal titration calorimetry
# Assay type: binding
row,Kd,SMILES
1,0.43 µM,Nc1nc2c(ncn2[C@@H]2O[C@H](COP(=O)(O)OP(=O)(O)OP(=O)(O)O)[C@@H](O)[C@H]2O)c(=O)[nH]1 [GTP]
2,26.2 µM,Nc1nc2c(ncn2[C@@H]2O[C@H](COP(=O)(O)OP(=O)(O)O)[C@@H](O)[C@H]2O)c(=O)[nH]1 [GDP]
3,222 µM,Nc1nc2c(ncn2[C@@H]2O[C@H](COP(=O)(O)OP(=O)(O)NP(=O)(O)O)[C@@H](O)[C@H]2O)c(=O)[nH]1 [GMPPNP]
